Experiments:
[1] = tested on: patients undergoing CABG surgery; test: Phase 2 CABG trial: myocardial ischemia by Holter ECG and TEE; type: in vivo, human; settings: for Isch min/h monitored: postbypass, listed as AICA riboside
Method: The evaluation of Holter tapes and echo videotapes was performed centrally by two independent blinded observers; if there was disagreement between the two, a third observer was used to “break the tie.” The same observers were used throughout the study. 5. Ischemic Events-TEE. Ischemic event data were evaluated during two time periods-pre-bypass and post-bypass, using the following analysis: a) The number of patients with ischemic events was compared across the groups using Fisher's exact test. This analysis also included pre-post changes and pre- and post-combined. b) For patients with events, analysis of the mean duration and severity of ischemia was done. […] For severity (an ordinary variable, 0-4 scale) and number of events, the nonparametric test was used. […] 6. Ischemic Events-ECG. The analysis of ischemic events indicated by ECG was done using the same methods as the echo events. The time periods analyzed were: (a) baseline (Holter start to infusion start), (b) pre-bypass (infusion start to bypass start), (c) post-bypass ([…] off to infusion end), and (d) post-treatment (infusion end to Holter end). For patients with events, the following variables were analyzed: mean duration, maximum ST change and area under the curve of significant ST segment deviation. Analysis of variance (ANOVA) was used. 3. Myocardial Ischemia. Myocardial ischemia was measured with continuous Holter ECG and TEE. […] ECG episodes of ischemia were defined as reversible S-T depression 1 mm or greater lasting 1 minute or longer. TEE data were recorded continuously during surgery at the level of the mid-papillary muscles of the left ventricle. The wall motion of each of the four segments was graded from 0-4 (normal to […] ischemia was defined by regional wall motion worsening at least 2 grades and lasting 1 minute or longer.

[2] = biological target: T1, NBTI-specific adenosine transport site (UniProt O54698); test: [3H]-NBTI binding assay; settings: read-out: ED50 (50% displacement of bound [3H]-NBTI); 0.5 mg neuronal membrane protein, 0.5 nM [3H]-NBTI, 30 minutes
T1 sequence (O54698 1-457): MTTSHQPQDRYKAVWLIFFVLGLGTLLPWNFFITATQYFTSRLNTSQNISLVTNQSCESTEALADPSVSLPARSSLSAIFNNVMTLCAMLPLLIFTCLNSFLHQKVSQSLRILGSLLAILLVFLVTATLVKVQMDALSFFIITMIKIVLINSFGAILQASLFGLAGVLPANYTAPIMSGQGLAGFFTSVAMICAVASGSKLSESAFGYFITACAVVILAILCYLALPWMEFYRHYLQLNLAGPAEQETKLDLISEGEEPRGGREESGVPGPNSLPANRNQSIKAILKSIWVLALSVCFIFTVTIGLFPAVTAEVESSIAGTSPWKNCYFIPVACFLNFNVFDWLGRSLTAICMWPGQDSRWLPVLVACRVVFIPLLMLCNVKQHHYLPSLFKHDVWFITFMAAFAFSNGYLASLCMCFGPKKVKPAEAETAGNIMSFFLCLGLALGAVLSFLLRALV
Method: Increasing concentrations of the test compounds were incubated for 30 minutes with 0.5 mg neuronal membrane protein together with 0.5 nM [^3 H]-NBTI in a Tris buffer (pH 7.4) at room temperature. The assays were quenched and membranes collected by rapid filtration. Filters were then solubilized and radioactivity determined by scintillation counting.

mast cells = test: AICA riboside: mast cell leukotriene C4 release; type: cell-based, mouse; settings: 100 μM pretreatment for six days
[3] = biological target: T2, purified pig heart adenosine kinase (Sus scrofa, UniProt A0A5G2R0F5); test: Adenosine kinase activity; type: biochemical; settings: 0.5 μM [U14C] adenosine, 1 mM ATP, 20 minutes at 37° C.
T2 construct: 0.1 μg of purified pig heart adenosine kinase; from tissue; host or cells: pig heart
Method: Inhibition of enzyme activity was determined using a 0.1 ml assay mixture containing 50 mM Tris-maleate, pH 7.0, 0.1% (w/v) BSA, 1 mM ATP, 1 mM MgCl2, 0.5 μM [U^14 C] adenosine (500 mCi/mmol) and 0.1 μg of purified pig heart adenosine kinase. Different concentrations of test compound were incubated in the assay mixture for 20 minutes at 37° C. From each reaction mixture, 20 μl portions were removed and spotted on 2^2 pieces of Whatman DE81 filter paper. The papers were then washed to remove [^14 C] adenosine in 1 mM ammonium formate followed by deionized water and finally 95% ethanol. The papers were dried, and [^14C] AMP measured by scintillation counting. Activities were determined from the amount of [^14C] AMP formed.

ischemic myocardium [4] = test: Inosine levels in venous blood of dogs during coronary artery occlusion; type: in vivo, dog; settings: over the 60-minute assay period, vs saline
From the text: Thirteen mongrel dogs were anesthetized with phenobarbital. […] C.V. Dis. 20; 55 (1977). […] Two of the surviving saline-treated animals fibrillated. […] That the increase in the levels of adenosine is due, at least in part, to a reduction in the amount of ATP that is converted to inosine was shown by analysis of venous blood from dogs in Example III for inosine levels.

[5] = tested on: patients undergoing CABG surgery; type: in vivo; settings: 0.05 mg/kg/min
ischemic myocardium [6] = type: in vivo, dog; settings: vs saline-treated animals, 5 and 60 minutes of ischemia
From the text: Thirteen mongrel dogs were anesthetized with phenobarbital. […] C.V. Dis. 20; 55 (1977).

myocardial infarct = test: Myocardial infarct size in rats after coronary artery ligation; type: in vivo, rat; settings: bolus plus osmotic mini-pump infusion, three weeks, vs saline
From the text: The animals were continuously exposed by infusion of either AICA riboside in saline or saline using osmotic mini-pumps well known to those in the art. After three weeks, the rats were sacrificed and infarct size quantitated by planimarizing stained sections of fixed hearts.

T2 sequence (A0A5G2R0F5 1-362): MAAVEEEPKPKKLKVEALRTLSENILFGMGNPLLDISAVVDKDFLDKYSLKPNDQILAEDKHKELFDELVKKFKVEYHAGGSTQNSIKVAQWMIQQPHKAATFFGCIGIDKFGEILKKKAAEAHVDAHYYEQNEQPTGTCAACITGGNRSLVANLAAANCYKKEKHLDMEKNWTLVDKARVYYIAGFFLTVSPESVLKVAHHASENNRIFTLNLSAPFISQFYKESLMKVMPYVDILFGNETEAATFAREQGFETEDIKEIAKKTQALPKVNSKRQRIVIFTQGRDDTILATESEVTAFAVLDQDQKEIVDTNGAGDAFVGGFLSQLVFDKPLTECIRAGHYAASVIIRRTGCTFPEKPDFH

NC(=O)c1ncn([C@@H]2O[C@H](CO)[C@@H](O)[C@H]2O)c1N [1 (1-110), 5-amino-1-β-D-ribofuranosyl-imidazole-4-carboxamide]
Isch min/h monitored ([1]; High Dose): 27±20 min/h
Isch min/h monitored ([1]; Low Dose): 40±15 min/h
incidence of ECG ischemia, postbypass period ([1]; high dose): 11%
incidence of ECG ischemia, prebypass period ([1]; high dose): 3%
incidence of TEE ischemia, postbypass period ([1]; high dose): 24%
incidence of TEE ischemia, prebypass period ([1]; high dose): 6%
incidence of ECG ischemia, postbypass period ([1]; low dose): 22%
incidence of ECG ischemia, prebypass period ([1]; low dose): 3%
incidence of TEE ischemia, postbypass period ([1]; low dose): 27%
incidence of TEE ischemia, prebypass period ([1]; low dose): 15%
EC50 [2]: > 1000 µM
Leukotriene C4 release reduced by (mast cells): 75%
IC50 [3]: > 5000 µM
inosine levels (ischemic myocardium [4]): more than twofold decrease
effect of low-dose acadesine on outcome [5]: no significant effect on any outcome measure
regional myocardial blood flow to the ischemic myocardium (ischemic myocardium [6]): significantly greater
reduction of infarct size (myocardial infarct): 33%

Source: patent publication US8993527B2, “Methods, compositions, and formulations for preventing or reducing adverse effects in a patient” (Pericor Therapeutics, Inc., priority 2005, dated 2015)
